Assays:
rat hind paw [1] = test: Heat-induced paw edema and protein extravasation (Evans blue), hind paw in 58° C. water for 5 min.; format: in vivo
Experimental: Male albino rats weighing 200 to 280 g were anesthetized with sodium pentobarbital, 60 mg/kg i.p., and a right jugular vein cannulated for drug injections. Human/rat CRF (at various dosages described below) or saline, and Evans blue dye, 50 mg/kg, were injected intravenously 10 and 3 min., respectively, before immersion of the hind paw in 48° C. or 58° C. water for 5 min. The frequency of paw withdrawal from the water was then counted.
(§1) At the end of the exposure period, the animals were sacrificed and the dorsal skin, between the calcaneal process and phalanges, was removed from both paws, weighed, and each placed in 4 ml of formamide for 3 days at room temperature. The extracted Evans blue was quantified colorimetrically at 600 nm with readings from the untreated paw skin used as the blank values.
Protein extravasation was measured by injecting a dye into a blood compartment of the animal. The dye binds to blood proteins and when the permeability of the tissue is increased by the heat, the dye leaks into the skin of the paw. The skin of the paw was excised, the dye extracted, and the amount of dye in the skin was measured to provide an index of the skin permeability changes that accompany the heat damage. […] In a manner analogous to that described above for administration of CRF, sauvagine was administered and paws of the anesthetized recipients exposed to water at 58° C. Saline was administered to a control group. The dose of sauvagine was 5 μg/kg given i.v. 5 min. before paw immersion.
In addition, other groups of rats were administered eithe rmorphine sulfate or dexamethasone, and groups of rats were administered saline as controls.

[2] = Mean arterial blood pressure (MAP); format: in vivo, rat; conditions: s.c. 60 min. before electrical stimulation of the saphenous nerve
Experimental: For injections of drugs into the brain, a 21-gauge guide cannula was stereotaxically implanted into the lateral ventricle and a 28-gauge internal cannula coupled to a Hamilton microsyringe was used to deliver a 5-μl volume of drug solution to the brain. The site of injection was verified by injections of 0.5% solutions of methylene blue into the same cannula. In some experiments, blood pressure was measured from a cannulated carotid artery coupled to a Narcobiosystems strain gauge, cardiotachometer and polygraph. Mean arterial blood pressure (MAP) was calculated as 1/3 pulse pressure plus diastolic pressure.
As has been known, CRF and related peptides produce hypotension in anesthetized and unanesthetized animals. […] Neither does the inflammation inhibition of the present invention appear to have any associaton with the hypotensive properties of CRF and its analogs.

rat hind paw [3] = test: Heat-induced paw edema and protein extravasation, hind paw in 48° C. water for 5 min.; format: in vivo; conditions: sauvagine 5 μg/kg i.v. 5 min. before
Experimental: Male albino rats weighing 200 to 280 g were anesthetized with sodium pentobarbital, 60 mg/kg i.p., and a right jugular vein cannulated for drug injections. […] The frequency of paw withdrawal from the water was then counted. Leakage of Evans blue dye into the paw skin becomes visible within 2 min. At water temperatures of 58° C., the average dye content was 364±17 μg/paw for rats receiving saline.
as §1
FIG. 3 illustrates the inhibition by CRF of heat-induced tissue edema, as measured by changes in skin weight. When the paw of an untreated, anesthetized rat is placed in warm water (48° C.) for 5 min., the paw swells and this paw edema can be measured simply by weighing the heated paw skin and comparing its weight to the contralateral, unheated paw skin. If just saline (that is, isotonic salt water) is injected as the control procedure, the percent increase in weight (with respect to unheated paw) is 72%.

[4] = 0.50 mg/kg i.v., 5 min. before exposure
[5] = 3.0 mg/kg i.v., 5 min. before exposure
[6] = 0.94 mg/kg i.v., 20 min. before exposure
[7] = 3.75 mg/kg i.v., 20 min. before exposure
[8] = 0.005 mg/kg i.v., 5 min. before exposure
[9] = Table I, sheep CRF at 0.168 mg/kg i.v., sauvagine at 5 μg/kg i.v.

C[C@@H]1C[C@H]2[C@@H]3CCC4=CC(=O)C=C[C@]4(C)[C@@]3(F)[C@@H](O)C[C@]2(C)[C@@]1(O)C(=O)CO [dexamethasone, reference compound]
% Weight Increase (rat hind paw [1]; [4]): 170 ± 14% | Dye μg/paw (rat hind paw [1]; [4]): 375 ± 23 μg/paw | inhibition of edema (in words) (rat hind paw [1]; doses of Table I): neither morphine nor dexamethasone inhibits either edema | inhibition of protein extravasation / dye leakage (in words) (rat hind paw [1]; doses of Table I): neither morphine nor dexamethasone inhibits

CN1CC[C@]23c4c5ccc(O)c4O[C@H]2[C@@H](O)C=C[C@H]3[C@H]1C5.O=S(=O)(O)O [morphine SO4, morphine sulfate, reference compound]
% Weight Increase (rat hind paw [1]; [5]): 157 ± 12% | Dye μg/paw (rat hind paw [1]; [5]): 290 ± 36 μg/paw

CC[C@H](C)[C@H](NC(=O)[C@@H](NC(=O)[C@H](CCC(=O)O)NC(=O)[C@H](CCSC)NC(=O)[C@H](CC(C)C)NC(=O)[C@H](CCCCN)NC(=O)[C@H](CCCNC(=N)N)NC(=O)[C@H](CC(N)=O)NC(=O)[C@H](CO)NC(=O)[C@H](Cc1c[nH]cn1)NC(=O)[C@H](C)NC(=O)[C@H](CCC(N)=O)NC(=O)[C@H](CCC(N)=O)NC(=O)[C@H](C)NC(=O)[C@H](CC(C)C)NC(=O)[C@H](CCC(N)=O)NC(=O)[C@H](CCC(=O)O)NC(=O)[C@H](C)NC(=O)[C@H](CCCNC(=N)N)NC(=O)[C@H](C)NC(=O)[C@H](CCSC)NC(=O)[C@H](CCC(=O)O)NC(=O)[C@H](CC(C)C)NC(=O)[C@@H](NC(=O)[C@H](CCC(=O)O)NC(=O)[C@H](CCCNC(=N)N)NC(=O)[C@H](CC(C)C)NC(=O)[C@H](CC(C)C)NC(=O)[C@H](Cc1c[nH]cn1)NC(=O)[C@H](Cc1ccccc1)NC(=O)[C@@H](NC(=O)[C@H](CC(C)C)NC(=O)[C@H](CC(=O)O)NC(=O)[C@H](CC(C)C)NC(=O)[C@H](CO)NC(=O)[C@@H](NC(=O)[C@@H]1CCCN1C(=O)[C@@H]1CCCN1C(=O)[C@H](CCC(=O)O)NC(=O)[C@H](CCC(=O)O)NC(=O)[C@@H](N)CO)[C@@H](C)CC)[C@@H](C)O)C(C)C)[C@@H](C)CC)C(N)=O [rCRF, Corticotropin Releasing Factor]
effect on mean arterial pressure [2]: did not lower mean arterial pressure

dynorphin (1-13)
reduction of edema (in words) (rat hind paw [1]; 940 μg/kg): did not | reduction of protein extravasation (in words) (rat hind paw [1]; 940 μg/kg): did not | % Weight Increase (rat hind paw [1]; [6]): 194 ± 6% | Dye μg/paw (rat hind paw [1]; [6]): 411 ± 15 μg/paw | reduction of edema (in words) (rat hind paw [1]; 3750 μg/kg i.v.): did reduce edema | reduction of protein extravasation (in words) (rat hind paw [1]; 3750 μg/kg i.v.): did reduce edema and protein extravasation | % Weight Increase (rat hind paw [1]; [7]): 87 ± 17% | Dye μg/paw (rat hind paw [1]; [7]): 223 ± 37 μg/paw

sauvagine
% Weight Increase (rat hind paw [1]; [8]): 51 ± 11% | Dye μg/paw (rat hind paw [1]; [8]): 86 ± 18 μg/paw | reduction of edema relative to saline (rat hind paw [1]; [9]): about comparable to the sheep CRF at 168 μg/kg i.v. in reducing edema | reduction of protein extravasation relative to saline (rat hind paw [1]; [9]): even more effective in reducing protein extravasation | dye increase (rat hind paw [3]): 13.7 ± 3.5 μg/paw | paw skin weight increase (rat hind paw [3]): 4.9%+2.0

Reference: patent US4801612A, “Method of inhibiting inflammatory response” (Regents of the University of California, priority 1986, dated 1989)
